Results on one substance are retold here after US20240384268A1, “Oligonucleotides” (Hudson Institute of Medical Research, priority 2021, published 2024).

d = 2'-deoxy (DNA); m = 2'-O-methyl

The target in this data set is cGAS (Homo sapiens, UniProt Q8N884). In words: ISD70-driven IP-10 production in HT-29 cells, ELISA. The class given is cell-based. More on the design: endogenous in cells. The settings on record: 187.5 nM ASO overnight, ISD70 24 h. (In an ELISA, binding on a coated surface is turned into a signal by an enzyme label.)
Sequence of cGAS (Q8N884 whole entry): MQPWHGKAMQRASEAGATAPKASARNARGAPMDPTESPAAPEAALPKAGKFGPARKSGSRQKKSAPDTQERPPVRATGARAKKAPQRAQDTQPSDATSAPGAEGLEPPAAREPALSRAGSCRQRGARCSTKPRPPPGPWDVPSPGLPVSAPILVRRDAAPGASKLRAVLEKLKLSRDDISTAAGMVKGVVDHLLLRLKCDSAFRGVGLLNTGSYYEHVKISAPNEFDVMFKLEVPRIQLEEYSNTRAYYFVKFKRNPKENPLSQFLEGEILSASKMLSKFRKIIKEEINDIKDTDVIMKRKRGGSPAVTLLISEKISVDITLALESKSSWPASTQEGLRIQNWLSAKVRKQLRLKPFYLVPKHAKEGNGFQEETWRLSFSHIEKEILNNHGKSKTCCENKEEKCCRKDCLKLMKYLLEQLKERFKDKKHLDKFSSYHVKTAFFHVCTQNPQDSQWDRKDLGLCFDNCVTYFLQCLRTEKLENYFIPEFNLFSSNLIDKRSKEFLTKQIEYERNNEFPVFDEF

With “mG*mA*mU*mG*mG*T*T*C*C*A*G*T*C*C*C*mU*mC*mU*mU*mC (GAUGGTTCCAGTCCCUCUUC; antisense; sugars from the 5' end m5 d10 m5, all phosphorothioate, methylation of C not given here) [[LINC-PINT]1497.1]”, the “reduction of ISD70-dependent IP-10 production” value worked out at 25%.
